{"source": "patent US20110104159A1", "about": "“COMPOSITIONS AND METHODS FOR TREATING, CONTROLLING, REDUCING, AMELIORATING, OR PREVENTING ALLERGY” (priority 2006, published 2011)", "key": {"EoL-1 cells": {"tested_on": "EoL-1 cells", "test": "EoL-1 cell apoptosis (annexin V/PI flow cytometry)", "assay_type": "cell-based, human", "conditions": "10 μM co-incubated", "protocol": "EoL-1 cells were grown in RPMI-1640+L-glutamine medium (containing 10% FBS) and kept at 37° C. in a 5% CO2 humidified atmosphere. Before each experiment, the cells were stabilized in serum-depleted media (0.1% FBS) for 24 h before treatments."}, "[1]": {"tested_on": "peripheral human blood eosinophils", "test": "Spontaneous eosinophil apoptosis (annexin V/PI flow cytometry)", "conditions": "10 μM co-incubated", "quoted_text": "To assess glucocorticoid-induced apoptosis, cells were double-stained with annexin V-Fluos and propidium iodide (PI). Annexin V-Fluos was used according to the manufacturer's instructions.\nThe suspension was incubated at room temperature for 10 min and analyzed in the BD FACS Canto II flow cytometry system (Becton, Dickinson and Company, New Jersey, USA). Eosinophils and EoL-1 cells were gated on the basis of their forward and side light scatter, with cell debris excluded from analysis. Apoptotic cells were defined as annexin V^+/PI^− cells. A two-way dot plot was prepared to verify the percentage of apoptotic cells. Annexin V^−/PI^− cells were used as control and annexin V^+/PI^+ cells were considered necrotic.\nAll data are expressed as mean±S.E.M. for the number of experiments indicated. Statistical comparisons were made by ANOVA and post-hoc Newman-Keuls test with differences of P<0.05 considered significant."}, "MPO": {"tested_on": "MPO", "test": "Myeloperoxidase (MPO) activity in iris-ciliary body", "assay_type": "in vivo, Rabbit", "protocol": "2.3.2.1 Phosphate Buffer (50 mM; pH=6)\n3.9 g of NaH2PO4 2H2O were dissolved in a volumetric flask to 500 ml with water. The pH was adjusted to pH=6 with 3N NaOH.\n0.5 g of hexa-decyl-trimethyl-ammonium bromide was dissolved in 100 ml phosphate buffer.\nThe solution was prepared freshly. Ten microliters of H2O2 (30 wt. %) were diluted to 1 ml with water (solution A). 7.5 mg o-dianisidine 2HCl were dissolved in 45 ml of phosphate buffer and 75 μl of solution A were added.\n(§1) Each rabbit was placed in a restraint device and tagged with the alphanumeric code. The formulations were instilled (50 μl) into the conjunctival sac of both eyes 180, 120, 90 and 30 min before the first paracentesis; then 15, 30, 90 min after the first paracentesis. To perform the first paracentesis the animals were anaesthetized by intravenous injection of 5 mg/kg Zoletil® (Virbac; 2.5 mg/kg tiletamine HCl and 2.5 mg/kg zolazepam HCl) and one drop of local anesthetic (Novesina®, Novartis) was administered to the eye. Anterior chamber paracentesis was performed with a 26 G needle attached to a tuberculin syringe; the needle was introduced into the anterior chamber through the cornea, taking care not to damage the tissues. Two hours after the first paracentesis, the animals were sacrificed with 0.4 ml Tanax® (Intervet International B.V.) and the second paracentesis was performed. About 100 μl of aqueous humor were removed at the second paracentesis. Aqueous humor was immediately split in four aliquots and stored at −80° C. until analysis. Then both eyes were enucleated and the iris-ciliary body was carefully excised, placed in polypropylene tubes, and stored at −80° C. until analysis.\nThe activity of MPO was measured as previously described by Williams et al. The iris-ciliary bodies were carefully dried, weighed and immersed in 1 ml of hexa-decyl-trimethyl-ammonium bromide solution. Then, the samples were sonicated for 10 sec on ice by a ultrasound homogenizer (HD 2070, Bandelin electronic), freeze-thawed three times, sonicated for 10 sec and centrifuged at 14,000 g for 10 min to remove cellular debris. An aliquot of the supernatant (40-200 μl) was diluted to 3 ml with the o-dianisidine 2HCl/H2O2 solution. The change in absorbance at 460 nm was continuously monitored for 5 min by a spectrophotometer (UV/Vis Spectrometer Lambda EZ 201; Perkin Elmer). The slope of the line (Δ/min) was determined for each sample and used to calculate the number of units of MPO in the tissue as follows:\nwhere ε=11.3 mM^−1. Values were expressed as units of MPO/g of tissue."}, "PGE2": {"tested_on": "PGE2", "test": "Prostaglandin E2 (PGE2) measurement in aqueous humor", "assay_type": "in vivo, Rabbit", "conditions": "0.5% topical", "protocol": "as §1\nFor the quantitative determination of PGE2 in the aqueous humor we used the PGE2 Immunoassay kit (R&D Systems; Cat. No. KGE004; Lot. No. 240010). Eleven microliters or 16 μl of aqueous humor were diluted to 110 μl or 160 μl with the calibrator diluent solution provided with the kit. One hundred microliters of samples and of standards were load into a 96-well plate and recorded in a plate layout. Samples were treated following the assay procedure described in the kit. A microplate reader (GDV, Italy; model DV 990 B/V6) set at 450 nm (wavelength correction at 540 nm) was used for making the calibration and analyzing the samples."}, "[2]": {"tested_on": "protein concentration in the aqueous humor", "test": "Protein measurement in aqueous humor", "assay_type": "in vivo, Rabbit", "conditions": "0.5% topical", "protocol": "as §1\nFor protein concentration determination in the aqueous humor we used the Protein Quantification Kit (Fluka; Cat. No. 77371; Lot. No. 1303129). Five microliters of aqueous humor were diluted to 100 μl with water. Twenty microliters of samples and of standards were load into a 96-well plate and recorded in a plate layout. Samples were treated following the assay procedure described in the kit. A microplate reader (GDV, Italy; model DV 990 B/V6) set at 670 nm was used for making the calibration and analyzing the samples."}, "[3]": {"tested_on": "rabbit paracentesis model", "test": "Clinical evaluation by slit lamp (clinical score), rabbit paracentesis model", "assay_type": "in vivo", "set-up": "key to Clinical Score −180 min / Clinical Score −5 min / Clinical Score +115 min: 0: normal; 1: discrete dilatation of iris and conjunctival vessels; 2: moderate dilatation of iris and conjunctival vessels; 3: intense iridal hyperemia with flare in the anterior chamber; 4: intense iridal hyperemia with flare in the anterior chamber and presence of fibrinous exudates", "conditions": "0.5% topical"}, "leukocytes (PMN)": {"tested_on": "leukocytes (PMN)", "test": "Leukocytes (PMN) measurement in aqueous humor", "assay_type": "in vivo, Rabbit", "conditions": "0.5% topical", "protocol": "as §1\nFor the determination of the number of leukocytes we used a haemocytometer (Improved Neubauer Chamber; Brigth-line, Hausser Scientific) and a Polyvar 2 microscope (Reichert-Jung)."}, "[4]": {"tested_on": "rabbit paracentesis model", "test": "Pupillary diameter measurement, rabbit paracentesis model", "assay_type": "in vivo", "conditions": "0.5% topical, individual eye", "protocol": "as §1\nThe pupillary diameter of both eyes was measured with a Castroviejo caliper 180 min and 5 min before the first paracentesis and 5 min before the second paracentesis."}}, "note": "Values joined by “and” are separate entries in the source; they are usually repeats but may differ in a detail not shown here. Identical values can stand only once.", "data": [{"smiles": "CC#C[C@]1(O)CC[C@H]2[C@@H]3CCC4=CC(=O)CCC4=C3[C@@H](c3ccc(N(C)C)cc3)C[C@@]21C", "note": "[mifepristone, reference compound]", "values": [{"measurement": "Effect on apoptosis induced by 5000 nM BOL-303242-X or dexamethasone in EoL-1 cells", "setting": "EoL-1 cells", "value": "prevented apoptosis"}, {"measurement": "Effect on apoptosis induced by 5000 nM BOL-303242-X or dexamethasone in human eosinophils", "setting": "[1]", "value": "prevented apoptosis"}]}, {"smiles": "CCOC(=O)O[C@]1(C(=O)OCCl)CC[C@H]2[C@@H]3CCC4=CC(=O)C=C[C@]4(C)[C@H]3[C@@H](O)C[C@@]21C", "note": "[LE, loteprednol etabonate, reference compound]", "values": [{"measurement": "MPO activity in iris-ciliary body, statistical comparison with CTR", "setting": "MPO; 0.5% topical, p<0.001", "value": "statistical significance"}, {"measurement": "Mean MPO Unit/g (MPO activity in iris-ciliary body samples)", "setting": "MPO; 0.5% treatment, group mean, after the second paracentesis", "value": 0.661, "unit": "Unit/g"}, {"measurement": "MPO Unit/g (raw data of MPO activity in iris-ciliary body samples)", "setting": "MPO; 0.5% treatment, individual eyes (DX/SX) of rabbits, samples collected after the second paracentesis", "value": "0.30 Unit/g and 0.51 Unit/g and 0.81 Unit/g and 0.60 Unit/g and 0.73 Unit/g and 1.01 Unit/g"}, {"measurement": "PGE2 in aqueous humor at the second paracentesis, Mean", "setting": "PGE2; group mean", "value": 0.672, "unit": "ng/mL"}, {"measurement": "PGE2 in aqueous humor at the second paracentesis", "setting": "PGE2; individual eye sample", "value": "^2N/D and 0.23 ng/ml and 0.68 ng/ml and 1.10 ng/ml"}, {"measurement": "PGE2 in aqueous humor, statistical comparison with CTR", "setting": "PGE2; p<0.05", "value": "statistically significant versus CTR"}, {"measurement": "Protein in aqueous humor at the second paracentesis, Mean", "setting": "[2]; group mean", "value": 33.905, "unit": "mg/mL"}, {"measurement": "Protein in aqueous humor at the second paracentesis", "setting": "[2]; individual eye sample", "value": "36.14 mg/mL and 39.10 mg/mL and 34.69 mg/mL and 26.10 mg/mL and 26.30 mg/mL and 28.16 mg/mL and 40.90 mg/mL and 39.85 mg/mL"}, {"measurement": "Clinical Score −5 min", "setting": "[3]; 5 min before first paracentesis, individual eye, scale 0-4", "value": 0}, {"measurement": "Clinical Score +115 min", "setting": "[3]; 5 min before second paracentesis, individual eye, scale 0-4", "value": "2 (2×) and 1 (6×)"}, {"measurement": "Percentage of eyes with clinical score 1", "setting": "[3]; +115 min, 8 eyes", "value": 75, "unit": "%"}, {"measurement": "Percentage of eyes with clinical score 2", "setting": "[3]; +115 min, 8 eyes", "value": 25, "unit": "%"}, {"measurement": "Clinical Score −180 min", "setting": "[3]; basal, individual eye, scale 0-4", "value": 0}, {"measurement": "Clinical score, statistical comparison with CTR", "setting": "[3]; p<0.05", "value": "significant difference"}, {"measurement": "Percentage of eyes with clinical score 0", "setting": "[3]; −5 min, 8 eyes", "value": 100, "unit": "%"}, {"measurement": "Percentage of eyes with clinical score 0", "setting": "[3]; −180 min, 8 eyes", "value": 100, "unit": "%"}, {"measurement": "PMN in aqueous humor at the second paracentesis, Mean", "setting": "leukocytes (PMN); group mean", "value": 28.333, "unit": "number/μl"}, {"measurement": "PMN in aqueous humor at the second paracentesis", "setting": "leukocytes (PMN); individual eye sample", "value": "40 number/μl (2×) and 20 number/μl (3×) and 30 number/μl"}, {"measurement": "Pupillary diameter T2: −5 min", "setting": "[4]; 5 min before first paracentesis", "value": "6.0 mm (3×) and 6.5 mm (5×)"}, {"measurement": "Pupillary diameter T3: +115 min", "setting": "[4]; 5 min before second paracentesis", "value": "4.5 mm and 5.0 mm (2×) and 5.5 mm (2×) and 6.0 mm (3×)"}, {"measurement": "Pupillary diameter Δ(T3 − T1)", "setting": "[4]; +115 min minus −180 min", "value": "−1.5 mm (2×) and −1.0 mm (3×) and 0.0 mm and −0.5 mm (2×)"}, {"measurement": "Pupillary diameter T1: −180 min", "setting": "[4]; basal", "value": "6.0 mm (3×) and 6.5 mm (5×)"}]}]}
